Patent US20170349532A1, “CATIONIC LIPID” (Kyowa Hakko Kirin Co., Ltd., priority 2011, published 2017)

Experiment: Average particle diameter of preparation (Zetasizer Nano ZS)
Assay type: physicochemical
Details: average particle diameter of cationic lipid/nucleic acid complex; Example 118 preparation: compound/PEG-DMPE Na/DSPC/cholesterol with apo-b siRNA
From the text: Preparations were produced using the compounds obtained in Examples 1 to 117, as follows.
APO-B siRNA was used as the nucleic acid. APO-B siRNA suppresses expression of an apolipoprotein-B (hereinafter, “apo-b”) gene and has a sense strand with the base sequence 5′-GmUCAmUCACACmUGAAmUACCAAmU-3′ (the sugars attached to the bases appended with m are 2′-O-methyl-substituted riboses), and an antisense strand with the base sequence 5′-[…]-3′ (the 5′-end is phosphorylated). The sense strand and the antisense strand were obtained from Nippon EGT, GeneDesign, Inc., Invitrogen or Hokkaido System Science Co., Ltd., and annealed to prepare the nucleic acid (hereinafter, “apo-b siRNA”).
A solution comprising the constituent components was prepared by dissolving each of the weighed samples in 90 vol % ethanol in 8.947/1.059/5.708/13.697 mmol/L [compounds 1 to 117 obtained in Examples 1 to 117/sodium 1,2-dimyristoyl-sn-glycero-3-phosphoethanolamine-N-(methoxy(polyethylene glycol)-2000) (PEG-DMPE Na,N-(carbonylmethoxypolyethylene glycol 2000)-1,2-dimyristoyl-sn-glycero-3-phosphoethanolamine sodium salt, NOF Corporation)/distearoylphosphatidyl choline (DSPC, 1,2-distearoyl-sn-glycero-3-phosphocholine, NOF Corporation)/cholesterol (Avanti Polar Lipids)]. Separately, apo-b siRNA/distilled water (24 mg/mL) was diluted with a Tris-EDTA buffer (200 mM Tris-HCl, 20 mM EDTA, Invitrogen) and a 20 mM citric acid buffer (pH 5.0) to prepare a 1.5 mg/mL apo-b siRNA aqueous solution (2 mM Tris-EDTA/20 mM citric acid buffer, pH 5.0).
The resulting lipid solution was heated to 37° C., and a 100-μL portion was transferred to a preparation container. The apo-b siRNA aqueous solution (100 μL) was then added thereto while being stirred. Then, a 20 mM citric acid buffer (containing 300 mM NaCl, pH 6.0; 200 μL) was added to the lipid nucleic acid mixed suspension (200 μL) while being stirred. The siRNA concentration was brought to 10 μM by dropping a Dulbecco phosphate buffer (DPBS, Invitrogen; 662 μL), and preparations (compositions comprising compounds 1 to 117 and the nucleic acid) were obtained.
The average particle diameter of the complex between the cationic lipis and the nucleic acid in each preparation was measured with a particle diameter measurement device (Malvern; Zetasizer Nano ZS).

Particle diameter of Preparetion | SMILES
118.9 nm | CCCCC/C=C\C/C=C\CCCCCCCCO[C@H]1C[N+](C)(C)C[C@@H]1OCCCCCCCC/C=C\C/C=C\CCCCC [Compound 52, (3S,4S)-1,1-Dimethyl-3,4-bis((9Z,12Z)-octadec-9,12-dienyloxy)pyrrolidinium chloride]
152.4 nm | CCCCC/C=C\C/C=C\CCCCCCCC(=O)O[C@@H]1CN(CC(O)CO)C[C@H]1OC(=O)CCCCCCC/C=C\C/C=C\CCCCC (stereo partly drawn) [Compound 53, (3R,4R)-1-(2,3-dihydroxypropyl)pyrrolidine-3,4-diyl di((9Z,12Z)-octadec-9,12-enoate)]
148.9 nm | CCCCC/C=C\C/C=C\CCCCCCCCO[C@@H]1CN(CC(C)O)C[C@H]1OCCCCCCCC/C=C\C/C=C\CCCCC (stereo partly drawn) [Compound 54, 1-((3R,4R)-3,4-bis((9Z,12Z)-Octadec-9,12-dienyloxy)pyrrolidine-1-yl)propan-2-ol]
139.6 nm | CCCCC/C=C\C/C=C\CCCCCCCCO[C@@H]1CN(CC(O)COC)C[C@H]1OCCCCCCCC/C=C\C/C=C\CCCCC (stereo partly drawn) [Compound 55, 1-(3R,4R)-3,4-bis(((9Z,12Z)-Octadec-9,12-dienyloxy)pyrrolidine-1-yl)-3-methoxypropan-2-ol]
120.3 nm | CCCCC/C=C\C/C=C\CCCCCCCCO[C@@H]1CN(CCCO)C[C@H]1OCCCCCCCC/C=C\C/C=C\CCCCC [Compound 56, 3-((3R,4R)-3,4-bis((9Z,12Z)-Octadec-9,12-dienyloxy)pyrrolidin-1-yl)propan-1-ol]
159.2 nm | CCCCC/C=C\C/C=C\CCCCCCCCO[C@@H]1CN(CCC(N)=O)C[C@H]1OCCCCCCCC/C=C\C/C=C\CCCCC [Compound 57, 3-((3R,4R)-3,4-bis((9Z,12Z)-Octadec-9,12-dienyloxy)pyrrolidin-1-yl)propanamide]
151.8 nm | CCCCC/C=C\C/C=C\CCCCCCCCO[C@@H]1CN(CCC(=O)N(C)C)C[C@H]1OCCCCCCCC/C=C\C/C=C\CCCCC [Compound 58, 3-((3R,4R)-3,4-bis((9Z,12Z)-Octadec-9,12-dienyloxy)pyrrolidin-1-yl)-N,N-dimethylpropanamide]
116.7 nm | CCCCC/C=C\C/C=C\CCCCCCCCO[C@@H]1CN(CCCN(C)C)C[C@H]1OCCCCCCCC/C=C\C/C=C\CCCCC [Compound 59, (3R,4R)-1-(3-N,N-Dimethylaminopropyl)-3,4-bis((9Z,12Z)-octadec-9,12-dienyloxy)pyrrolidine]
125.3 nm | CCCCC/C=C\C/C=C\CCCCCCCCO[C@@H]1CN(C2CCN(C)CC2)C[C@H]1OCCCCCCCC/C=C\C/C=C\CCCCC [Compound 60, 4-((3R,4R)-3,4-bis((9Z,12Z)-Octadec-9,12-dienyloxy)pyrrolidin-1-yl)-1-methylpiperidine]
125.9 nm | CCCCC/C=C\C/C=C\CCCCCCCCO[C@@H]1CN(C(=O)CN)C[C@H]1OCCCCCCCC/C=C\C/C=C\CCCCC [Compound 61, (3R,4R)-1-(2-Aminoacetyl)-3,4-bis((9Z,12Z)-octadec-9,12-dienyloxy)pyrrolidine]
151.3 nm | CCCCC/C=C\C/C=C\CCCCCCCCO[C@@H]1CN(C(=O)CCN)C[C@H]1OCCCCCCCC/C=C\C/C=C\CCCCC [Compound 62, (3R,4R)-1-(3-Aminopropanoyl)-3,4-bis((9Z,12Z)-octadec-9,12-dienyloxy)pyrrolidine]
143.0 nm | CCCCC/C=C\C/C=C\CCCCCCCCO[C@@H]1CN(C(=O)[C@@H](N)CCCN)C[C@H]1OCCCCCCCC/C=C\C/C=C\CCCCC [Compound 63, (3R,4R)-1-((S)-2,5-Diaminopentanoyl)-3,4-bis((9Z,12Z)-octadec-9,12-dienyloxy)pyrrolidine]
146.0 nm | CCCCC/C=C\C/C=C\CCCCCCCCO[C@@H]1CN(C(=O)CCCCCN)C[C@H]1OCCCCCCCC/C=C\C/C=C\CCCCC [Compound 64, (3R,4R)-1-(6-Aminohexanoyl)-3,4-bis((9Z,12Z)-octadec-9,12-dienyloxy)pyrrolidine]
128.9 nm | CCCCC/C=C\C/C=C\CCCCCCCC(=O)O[C@@H]1CN(C(=O)CN)C[C@H]1OC(=O)CCCCCCC/C=C\C/C=C\CCCCC [Compound 65, (3R,4R)-1-(2-aminoacetyl)pyrrolidine-3,4-diyl di((9Z,12Z)-octadec-9,12-enoate)]
137.4 nm | CCCCC/C=C\C/C=C\CCCCCCCC(=O)O[C@@H]1CN(C(=O)[C@@H](N)CCCCN)C[C@H]1OC(=O)CCCCCCC/C=C\C/C=C\CCCCC [Compound 66, (3R,4R)-1-((S)-2,6-Diaminohexanoyl)pyrrolidine-3,4-diyl di((9Z,12Z)-octadec-9,12-enoate)]
127.6 nm | CCCCCCCC/C=C\CCCCCCCCOCCNCCOCCCCCCCC/C=C\CCCCCCCC [Compound 67, bis(2-((Z)-Octadec-9-enyloxy)ethyl)amine]
132.4 nm | CCCC/C=C\CCCCCCCCOCCNCCOCCCCCCCC/C=C\CCCC [Compound 68, bis(2-((Z)-Tetradec-9-enyloxy)ethyl)amine]

Particle diameter of Preparetion | SMILES
136.8 nm | CCCCCCCCCCCCCCOCCNCCOCCCCCCCCCCCCCC [Compound 69, bis(2-(Tetradecyloxy)ethyl)amine]
145.6 nm | CCCCCCCCCCCCCCCCOCCNCCOCCCCCCCCCCCCCCCC [Compound 70, bis(2-(Hexadecyloxy)ethyl)amine]
148.4 nm | CCCCCCCCCCCCCCCCCCOCCNCCOCCCCCCCCCCCCCCCCCC [Compound 71, bis(2-(Octadecyloxy)ethyl)amine]
130.6 nm | CCCCCC/C=C\CCCCCCCCOCCNCCOCCCCCCCC/C=C\CCCCCC [Compound 72, bis(2-((Z)-Hexadec-9-enyloxy)ethyl)amine]
146.8 nm | CCCCCCCC/C=C\CCCCCCCC(=O)OCCNCCOC(=O)CCCCCCC/C=C\CCCCCCCC [Compound 73, N,N-bis(2-((Z)-Octadec-9-enoyloxy)ethyl)amine]
128.4 nm | CCCCC/C=C\C/C=C\CCCCCCCC(=O)OCCNCCOC(=O)CCCCCCC/C=C\C/C=C\CCCCC [Compound 74, N,N-bis(2-((9Z,12Z)-Octadec-9,12-dienoyloxy)ethyl)amine]
124.0 nm | CCCC/C=C\CCCCCCCCOCCN(C)CCOCCCCCCCC/C=C\CCCC [Compound 75, N-Methyl-N,N-bis(2-((Z)-Tetradec-9-enyloxy)ethyl)amine]
133.6 nm | CCCCCCCCCCCCCCCCOCCN(C)CCOCCCCCCCCCCCCCCCC [Compound 76, N,N-bis(2-(Hexadecyloxy)ethyl)-N-methylamine]
119.7 nm | CCCCCC/C=C\CCCCCCCCCCOCCN(C)CCOCCCCCCCCCC/C=C\CCCCCC [Compound 77, N-Methyl-N,N-bis(2-((Z)-octadec-11-enyloxy)ethyl)amine]
131.4 nm | CCCCCCCC/C=C\CCCCCCCCCCOCCN(C)CCOCCCCCCCCCC/C=C\CCCCCCCC [Compound 78, N,N-bis(2-((Z)-Icos-11-enyloxy)ethyl)-N-methylamine]
116.5 nm | CCCCC/C=C\C/C=C\CCCCCCCCCCOCCN(C)CCOCCCCCCCCCC/C=C\C/C=C\CCCCC [Compound 79, N,N-bis(2-((11Z,14Z)-Icos-11,14-dienyloxy)ethyl)-N-methylamine]
110.3 nm | CCCCCCCC/C=C\CCCCCCCCOCC[N+](C)(C)CCOCCCCCCCC/C=C\CCCCCCCC.[Cl-] [Compound 80, N,N-diMethyl-N,N-bis(2-((Z)-octadec-9-enyloxy)ethyl)aminium chloride]
103.4 nm | CCCCCCCC/C=C\CCCCCCCC(=O)OCC[N+](C)(C)CCOC(=O)CCCCCCC/C=C\CCCCCCCC.[Cl-] [Compound 81, N,N-diMethyl-N,N-bis(2-((Z)-octadec-9-enoyloxy)ethyl)aminium chloride]
125.7 nm | CCCCCCCC/C=C\CCCCCCCCOCCN(CCOCCCCCCCC/C=C\CCCCCCCC)CC(O)CO (stereo not drawn) [Compound 82, 3-(bis(2-((Z)-Octadec-9-enyloxy)ethyl)amino)propan-1,2-diol]
169.1 nm | CCCCCCCC/C=C\CCCCCCCC(=O)OCCN(CCOC(=O)CCCCCCC/C=C\CCCCCCCC)CC(O)CO (stereo not drawn) [Compound 83, 3-(bis(2-((Z)-Octadec-9-enoyloxy)ethyl)amino)propan-1,2-diol]
120.2 nm | CCCCCCCC/C=C\CCCCCCCCOCCN(CCOCCCCCCCC/C=C\CCCCCCCC)CCC(N)=O [Compound 84, 3-(bis(2-((2)-Octadec-9-enyloxy)ethyl)amino)propanamide]
